Data as given in paper PMC10016038, “Enhanced Endosomal Signaling and Desensitization of GLP-1R vs GIPR in Pancreatic Beta Cells” (Endocrinology, 2023).
“Also recorded” adds a separate entry of the source.

Legend:
SNAP-tagged human GIPR [1] = experiment: High-content microscopy recycling, SNAP-GIPR; assay type: cell-based; settings: 100 nM, 60 min recycling, 37 °C, n = 5
Protocol: The assay was performed as previously described ([21]). The INS-1 832/3 SNAP-GLP-1R or SNAP-GIPR cells were seeded into poly-D-lysine-coated, black 96-well plates. On the day of the assay, labeling was performed with BG-S-S-649 (1 µM), a surface-labeling SNAP-tag probe that can be released on application of reducing agents such as Mesna. After washing, treatments were applied for 30 minutes at 37 °C in complete medium. Ligand was removed and cells washed with cold HBSS and placed on ice for subsequent steps. Mesna (100 mM in alkaline TNE buffer, pH 8.6) or alkaline TNE buffer without Mesna was applied for 5 minutes, and then washed with HBSS. Cells were imaged by widefield microscopy, with both epifluorescence and transmitted phase contrast images acquired. On imaging completion, HBSS was removed and replaced with fresh complete medium, and receptor was allowed to recycle for 60 minutes at 37 °C, followed by a second Mesna application to remove any receptor that had recycled to the plasma membrane, with the plate re-imaged as above. Internalized receptor at each time point was determined from cell-containing regions as determined from the phase contrast image using […] ([22]) and used to determine internalization and recycling parameters as previously described ([21]). […]

SNAP-tagged human GIPR [2] = experiment: RICS receptor diffusion / clustering, SNAP-GIPR; assay type: cell-based; settings: 5 minutes, 100 nM; n = 4
SNAP-tagged human GLP-1R = SNAP-tagged human GLP-1R (Homo sapiens, UniProt P43220); experiment: TR-FRET receptor clustering, SNAP-GLP-1R; assay type: cell-based; settings: 100 nM, 37 °C, n = 4
[3] = test system: cAMP response in INS-1 832/3 cells; experiment: cAMP HTRF assay; assay type: cell-based, rat; settings: 100 nM, log(Emax/EC50) in Fig. 7A, n = 5
Source text: Results were expressed as basal fold increase responses and fitted to 3-parameter curves using Prism 9 (GraphPad).
Figure 7. Functional analysis of GLP-1R vs GIPR signaling in beta cells. […] Data are mean ± SEM, compared by paired t tests; *P < .05; ns, nonsignificant.

[4] = test system: cAMP response in mouse islet beta cells; experiment: cAMP FRET assay, Pdx1-CreERT/CAMPER islets; assay type: cell-based; settings: 100 nM, n = 4
Protocol: Nondiabetic mice of both sexes were used for islet isolation. Briefly, pancreata were infused via the common bile duct with RPMI-1640 medium containing 1 mg/mL collagenase from Clostridium histolyticum (Nordmark Biochemicals), dissected, and incubated in a water bath at 37 °C for 10 minutes. Islets were subsequently washed and purified using a Histopaque gradient (Histopaque-1119, 11191, Sigma-Aldrich, and Histopaque-1083, 10831, Sigma-Aldrich). Isolated islets were allowed to recover overnight at 37 °C in 5% CO2 in RPMI-1640 supplemented with 10% FBS and 1% penicillin/streptomycin. […]
CAMPER reporter mice ([30]), with conditional expression of the cAMP fluorescence resonance energy transfer (FRET) biosensor ^TEPAC^VV ([31]), were purchased from Jackson Laboratory (Stock No: 032205) and crossed with Pdx1-Cre^ERT mice (in house) to generate mice with inducible ^TEPAC^VV expression from pancreatic beta cells, used to isolate islets for ex vivo cAMP FRET assays. […] Raw intensity traces for YFP and CFP fluorescence were extracted from whole islet ROIs using Fiji and YFP/CFP ratios calculated for each ROI and time point. Responses were plotted relative to the average fluorescence intensity per islet during the 6 mM glucose baseline period, before agonist addition. […]

GLP-1R-NanoLuc = experiment: Rab5-Venus bystander NanoBRET (early endosome), GLP-1R; assay type: cell-based; settings: n = 5
Source text: GLP-1R-NanoLuc was generated in house by polymerase chain reaction (PCR) cloning of the NanoLuciferase sequence from pcDNA3.1-ccdB-NanoLuc (a gift from Prof. Mikko Taipale; Addgene plasmid # 87067) onto the C-terminus end of the SNAP-GLP-1R vector (CisBio), followed by site-directed mutagenesis of the GLP-1R stop codon. GIPR-NanoLuc was subsequently cloned in house by exchanging the GLP-1R for the GIPR in the GLP-1R-NanoLuc construct. KRAS- and Rab5-Venus plasmids were a gift from Prof. Kevin Pfleger, University of Western Australia. The INS-1 832/3 GLP-1R KO and GIPR KO cells were seeded in 12-well plates and co-transfected with 0.2 µg KRAS-Venus and 0.1 µg GLP-1R- or GIPR-NanoLuc, respectively, or 0.5 µg Rab5-Venus and 0.1 µg GLP-1R- or GIPR-NanoLuc, respectively.
All NanoBiT and NanoBRET readings were obtained in a Flexstation 3 plate reader. Briefly, 24 hours after transfection, cells were detached, resuspended in NanoGlo Live Cell Reagent (Promega) with furimazine (1:20 dilution) and seeded into white 96-well half-area plates. […] Readings were normalized to well baseline and then to average vehicle-induced signal to establish the agonist-induced effect. AUCs from response curves were calculated for each agonist concentration and fitted to four-parameter curves using Prism 9 (GraphPad).
Figure 2. Endosomal vs plasma membrane localization of GLP-1R compared with GIPR in beta cells. […]

SNAP-tagged human GLP-1R, sequence (P43220 24-463): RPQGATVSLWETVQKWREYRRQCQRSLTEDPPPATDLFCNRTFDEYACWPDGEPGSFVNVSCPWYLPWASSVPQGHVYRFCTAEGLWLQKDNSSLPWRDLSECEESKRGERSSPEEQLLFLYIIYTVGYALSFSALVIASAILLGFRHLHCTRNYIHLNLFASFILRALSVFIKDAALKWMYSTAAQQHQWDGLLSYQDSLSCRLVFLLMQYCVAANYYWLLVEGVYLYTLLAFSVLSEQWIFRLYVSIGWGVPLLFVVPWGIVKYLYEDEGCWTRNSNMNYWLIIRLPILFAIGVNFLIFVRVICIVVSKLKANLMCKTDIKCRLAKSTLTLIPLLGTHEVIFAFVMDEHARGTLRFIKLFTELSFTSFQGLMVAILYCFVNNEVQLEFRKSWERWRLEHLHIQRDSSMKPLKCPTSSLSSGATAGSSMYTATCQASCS

| Substance | Recycling rate of GIPR compared with GLP-1R (SNAP-tagged human GIPR [1]) | GIPR diffusion (RICS) upon stimulation (SNAP-tagged human GIPR [2]) | GLP-1R clustering (SNAP-tagged human GLP-1R) | cAMP response, GIP compared with GLP-1, INS-1 832/3 [3] | cAMP response, GIP compared with GLP-1, mouse islet beta cells [4] | Agonist-mediated redistribution of GLP-1R to Rab5-positive early endosomes (GLP-1R-NanoLuc) |
| --- | --- | --- | --- | --- | --- | --- |
| GIP(1-42) | significantly increased recycling rates | marked slowing of diffusion | not detectable | near-significant increase; also recorded: tendency toward increased | a tendency replicated in primary mouse islet beta cells; also recorded: nonsignificant tendency toward increased cAMP | – |
| GLP-1(7-36)NH2 | – | – | – | – | – | clearly detectable |
